In ChEMBL document CHEMBL6083193, “Advancing drug discovery: Thiadiazole derivatives as multifaceted agents in medicinal chemistry and pharmacology” (Bioorg Med Chem, 2024):
≈ marks a conversion by molar mass, not a printed value.

What was measured:
[1] = Inhibition of alpha amylase (unknown origin) using starch as substrate pre-incubated for 30 mins followed by substrate addition and measured after 30 mins by absorbance based analysis; parameters: species or system Homo sapiens
A549 [2] = assay: Cytotoxicity against human A549 cells assessed as reduction in cell growth; format: functional, cell-based
[3] = Antioxidant activity assessed as DPPH radical scavenging activity measured for 30 mins by spectrophotometric analysis; format: functional
Alpha glucosidase = Alpha glucosidase (Homo sapiens, UniProt O43451+P10253+P14410+Q2M2H8); assay: Inhibition of Alpha-glucosidase (unknown origin); format: protein assay
[4] = Inhibition of Alpha-amylase (unknown origin); parameters: species or system Homo sapiens
Mus musculus = assay: Antiinflammatory activity against carrageenan-induced paw edema in Swiss mouse assessed as reduction in paw edema at 15 mg/kg, po relative to control; format: functional; parameters: scale not given: the % may be the effect or the level left
A2780 = assay: Anticancer activity against human A2780 cells by MTT assay; format: functional, cell-based
COLO 205 = assay: Anticancer activity against human COLO 205 cells by MTT assay; format: functional, cell-based
A549 [5] = assay: Anticancer activity against human A549 cells by MTT assay; format: functional, cell-based
MCF7 = assay: Anticancer activity against human MCF7 cells by MTT assay; format: functional, cell-based
Toxoplasma gondii = assay: Antiparasitic activity against Toxoplasma gondii RH infected in human HFF cells; format: functional, organism-based

Compound: O=C(CCl)Nc1nnc(NC(=O)c2cccs2)s1
- IC50 [1]: 36100 nM

Compound: Cc1ccc(Nc2nnc(SCC(=O)N3N=C(c4ccccc4)CC3c3ccc([N+](=O)[O-])cc3)s2)cc1 (centres undefined)
- IC50 (A549 [2]): 10000 nM

Compound: Cc1ccc(/C=C2\S/C(=N\c3nn(-c4ccccc4)nc3C(=O)Nc3nncs3)NC2=O)cc1
- IC50 [3]: 22.63 µg/mL (≈ 46.3 µM)

Compound: S=C(Nc1ccc(Br)cc1)Nc1nsc(Nc2ccc(Cl)cc2)n1
- IC50 (Alpha glucosidase): 2200 nM
- IC50 [4]: 1300 nM

Compound: O=C(CCl)Nc1nn(-c2ccccc2)nc1C(=O)Nc1nncs1
- IC50 [3]: 22.63 µg/mL (≈ 62.2 µM)

Compound: O=C1N/C(=N\c2nnc(C34CC5CC(CC(C5)C3)C4)s2)S/C1=C\c1ccc(F)cc1
- Activity (Mus musculus): 66.7%

Compound: O=C(Nc1ccc(Cl)cc1)c1ccc(-c2nsc(-c3csc(-c4ccncc4)n3)n2)cc1
- IC50 (A2780): 110 nM
- IC50 (COLO 205): 110 nM
- IC50 (A549 [5]): 110 nM
- IC50 (MCF7): 110 nM

Compound: O=C1N/C(=N\c2nnc(C34CC5CC(CC(C5)C3)C4)s2)S/C1=C\c1cccc(F)c1F
- Activity (Mus musculus): 66.7%

Compound: Cc1nc[nH]c1-c1nnc(Nc2ccccc2Br)s1
- IC50 (Toxoplasma gondii): 4.7 µg/mL (≈ 14 µM)

Compound: Cc1nc[nH]c1-c1nnc(Nc2cccc(F)c2)s1
- IC50 (Toxoplasma gondii): 4.7 µg/mL (≈ 17.1 µM)

Compound: CC(C)Nc1nnc(SCC(=O)N2N=C(c3ccccc3)CC2c2ccc([N+](=O)[O-])cc2)s1 (centres undefined)
- IC50 (A549 [2]): 10000 nM

Compound: O=C1CS/C(=N\c2nn(-c3ccccc3)nc2C(=O)Nc2nncs2)N1
- IC50 [3]: 44.35 µg/mL (≈ 115 µM)

Compound: O=C1N/C(=N\c2nnc(C34CC5CC(CC(C5)C3)C4)s2)S/C1=C\c1ccc(Cl)cc1Cl
- Activity (Mus musculus): 66.7%

Compound: O=C(NC1=NN2C(=O)CN=C2S1)c1cccs1
- IC50 [1]: 36100 nM

Compound: O=[N+]([O-])c1ccccc1NC(=S)Nc1nsc(Nc2cccc(C(F)(F)F)c2)n1
- IC50 (Alpha glucosidase): 2200 nM
- IC50 [4]: 1300 nM

Compound: Cc1ccc(/C=C2\S/C(=N/c3nnc(C45CC6CC(CC(C6)C4)C5)s3)NC2=O)cc1
- Activity (Mus musculus): 66.7%

Compound: COc1cccc(NC(=S)Nc2nsc(Nc3ccc(Cl)c(Cl)c3)n2)c1
- IC50 (Alpha glucosidase): 2200 nM
- IC50 [4]: 1300 nM

Compound: O=C1N/C(=N\c2nnc(C34CC5CC(CC(C5)C3)C4)s2)S/C1=C\c1ccc(O)cc1
- Activity (Mus musculus): 66.7%

Compound: O=C1N/C(=N\c2nnc(C34CC5CC(CC(C5)C3)C4)s2)S/C1=C\c1c(F)cccc1F
- Activity (Mus musculus): 66.7%

Compound: O=C1N/C(=N\c2nnc(C34CC5CC(CC(C5)C3)C4)s2)S/C1=C\c1ccc([N+](=O)[O-])cc1
- Activity (Mus musculus): 66.7%

Compound: CCCCNc1nnc(SCC(=O)N2N=C(c3ccccc3)CC2c2ccc([N+](=O)[O-])cc2)s1 (centres undefined)
- IC50 (A549 [2]): 10000 nM

Compound: Cc1nc[nH]c1-c1nnc(Nc2cccc(Cl)c2)s1
- IC50 (Toxoplasma gondii): 4.7 µg/mL (≈ 16.1 µM)

Compound: COc1cccc(/C=C2\S/C(=N/c3nnc(C45CC6CC(CC(C6)C4)C5)s3)NC2=O)c1
- Activity (Mus musculus): 66.7%

Compound: O=C1N/C(=N\c2nnc(C34CC5CC(CC(C5)C3)C4)s2)S/C1=C\c1ccccc1[N+](=O)[O-]
- Activity (Mus musculus): 66.7%

Compound: Cc1nc[nH]c1-c1nnc(Nc2cccc(I)c2)s1
- IC50 (Toxoplasma gondii): 4.7 µg/mL (≈ 12.3 µM)

Compound: O=[N+]([O-])c1cccc(Nc2nc(NC(=S)Nc3ccc(Cl)cc3Cl)ns2)c1
- IC50 (Alpha glucosidase): 2200 nM
- IC50 [4]: 1300 nM

Compound: CSc1ccc(C2SCC(=O)N2c2nnc(-c3ccccc3)s2)cc1 (centres undefined)
- IC50 (Alpha glucosidase): < 500000 nM

Compound: COc1ccc(/C=C2\S/C(=N\c3nn(-c4ccccc4)nc3C(=O)Nc3nncs3)NC2=O)cc1
- IC50 [3]: 22.63 µg/mL (≈ 44.9 µM)

Compound: O=C(Nc1ccc([N+](=O)[O-])cc1)c1ccc(-c2nsc(-c3csc(-c4ccncc4)n3)n2)cc1
- IC50 (A2780): 110 nM
- IC50 (COLO 205): 110 nM
- IC50 (A549 [5]): 110 nM
- IC50 (MCF7): 110 nM

Compound: O=C(Nc1ccc(Br)cc1)c1ccc(-c2nsc(-c3csc(-c4ccncc4)n3)n2)cc1
- IC50 (A2780): 110 nM
- IC50 (COLO 205): 110 nM
- IC50 (A549 [5]): 110 nM
- IC50 (MCF7): 110 nM

Compound: O=C1N/C(=N\c2nnc(C34CC5CC(CC(C5)C3)C4)s2)S/C1=C\c1ccc(Br)cc1
- Activity (Mus musculus): 66.7%

Compound: Nc1nn(-c2ccccc2)nc1C(=O)Nc1nncs1
- IC50 [3]: 39.27 µg/mL (≈ 137 µM)

Compound: O=C(CSc1nnc(NC2CCCCC2)s1)N1N=C(c2ccccc2)CC1c1ccc([N+](=O)[O-])cc1 (centres undefined)
- IC50 (A549 [2]): 10000 nM

Compound: FC(F)(F)c1cccc(Nc2nc(NC(=S)Nc3ccccc3)ns2)c1
- IC50 (Alpha glucosidase): 2200 nM
- IC50 [4]: 1300 nM

Compound: N#Cc1ccc(NC(=O)c2ccc(-c3nsc(-c4csc(-c5ccncc5)n4)n3)cc2)cc1
- IC50 (A2780): 110 nM
- IC50 (COLO 205): 110 nM
- IC50 (A549 [5]): 110 nM
- IC50 (MCF7): 110 nM

Compound: O=C1N/C(=N\c2nnc(C34CC5CC(CC(C5)C3)C4)s2)S/C1=C\c1c(Cl)cccc1Cl
- Activity (Mus musculus): 66.7%

Compound: N=c1cc(N)nc2sc(NC(=O)c3cccs3)nn12
- IC50 [1]: 36100 nM
